From patent US20100022562A1, “Use of Plant Growth Regulators to Reduce Abscisic Acid Related Plant Leaf Yellowing” (priority 2008, published 2010)

Key:
Pansy plants [1] = assay: Pansy leaf transpiration rate (LI-1600 Steady State Porometer); type: in vivo; conditions: for Transpiration rate (% of control): Matrix Premium Rose
Method: (§1) Uniform plants were selected for the study. Prior to chemical treatment, plants were saturated with water and then drained for about two hours. A total of 20 mL chemical solution, which is equivalent to about 10% of the cell volume, was applied to each plant with 3 mL solution foliar applied to canopy and 17 mL solution drench applied to root zone. Unless specified, watering of plants was stopped after chemical treatment.
(§2) After chemical treatment, plants were arranged in a randomized complete block experimental design. The plants were rated daily for the extent of wilting on a scale from 1 (no wilting) to 4 (complete wilting) to generated a sales index rating. A rating of 2.5 was the point at which a plant was determined to be unmarketable and the previous day was recorded as the shelf life of that plant in days. Yellow leaf number was counted at 3 days after chemical treatment. Leaf transpiration rate was measured after treatment using a LI-1600 Steady State Porometer (LI-Cor, Lincoln, Nebr.). The transpiration rate of each treatment was calculated as the percentage of that of control at each day to reduce day-to-day variation caused by changes of environmental condition such as light intensity, humidity, and temperature.

Pansy plants [2] = assay: Pansy shelf life under drought (daily wilting rating, sales index); type: in vivo
Method: All studies were conducted in the greenhouse at the research farm of Valent BioSciences Corporation (Long Grove, Ill.). Pansy plants were obtained either from local retailers as mature plants, or plugs from wholesale nurseries. Plugs of Pansy plants were transplanted into an 18-cell flat filled with Promix BX (available from Premier Horticulture Inc. Quakertown, Pa.) and grown for about 30 days prior to treatment. During growing periods, plants received daily irrigation and weekly fertilizer (1 g/L all purpose fertilizer 20-20-20, The Scotts Company, Marysville, Ohio).
as §1, §2

Question: Which “Transpiration rate (% of control)” value (Pansy plants [1]; 3 mg ABA, no water, day 1 after treatment, Table 14) does the source give for “(S)-5-(1-hydroxy-2,6,6,-trimethyl-4-oxo-2-cyclohexen-1-yl)-3-methyl-(2Z,4E)-pentadienoic acid [ABA]” here?
Answer: 22 % of control

Question: And the “Transpiration rate (% of control)” value (Pansy plants [1]; 3 mg ABA, no water, day 2 after treatment, Table 14)?
Answer: 15 % of control

Question: And the “Transpiration rate (% of control)” value (Pansy plants [1]; 3 mg ABA, no water, day 3 after treatment, Table 14)?
Answer: 34 % of control

Question: What about the “Transpiration rate (% of control)” value (Pansy plants [1]; 3 mg ABA, no water, day 4 after treatment, Table 14) of the same substance?
Answer: 35 % of control

Question: What about the “Transpiration rate (% of control)” value (Pansy plants [1]; 3 mg ABA, no water, day 5 after treatment, Table 14) of the same substance?
Answer: 27 % of control

Question: What about the “Transpiration rate (% of control)” value (Pansy plants [1]; 3 mg ABA, watered, day 1 after treatment, Table 14) of the same substance?
Answer: 23 % of control

Question: And the “Transpiration rate (% of control)” value (Pansy plants [1]; 3 mg ABA, watered, day 2 after treatment, Table 14)?
Answer: 18 % of control

Question: What about the “Transpiration rate (% of control)” value (Pansy plants [1]; 3 mg ABA, watered, day 3 after treatment, Table 14) of the same substance?
Answer: 36 % of control

Question: And the “Transpiration rate (% of control)” value (Pansy plants [1]; 3 mg ABA, watered, day 4 after treatment, Table 14)?
Answer: 43 % of control

Question: And the “Transpiration rate (% of control)” value (Pansy plants [1]; 3 mg ABA, watered, day 5 after treatment, Table 14)?
Answer: 59 % of control

Question: And the “Transpiration rate (% of control)” value (Pansy plants [1]; 3 mg ABA, watered, day 7 after treatment, Table 14)?
Answer: 76 % of control

Question: What about the “Transpiration rate (% of control)” value (Pansy plants [1]; 3 mg ABA, watered, day 10 after treatment, Table 14) of the same substance?
Answer: 97 % of control

Question: And the “Transpiration rate (% of control)” value (Pansy plants [1]; 3 mg ABA, watered, day 15 after treatment, Table 14)?
Answer: 97 % of control

Question: What about the Transpiration inhibition (Pansy plants [1]; 3 mg ABA, watered, within 5 days after treatment) of the same substance?
Answer: more than 50%

Question: And the “Transpiration rate (% of control)” value (Pansy plants [1]; 30 mg ABA, day 1 after ABA treatment, Table 12)?
Answer: 6 % of control

Question: And the “Transpiration rate (% of control)” value (Pansy plants [1]; 30 mg ABA, day 2 after ABA treatment, Table 12)?
Answer: 8 % of control

Question: What about the “Transpiration rate (% of control)” value (Pansy plants [1]; 30 mg ABA, day 3 after ABA treatment, Table 12) of the same substance?
Answer: 11 % of control

Question: And the “Transpiration rate (% of control)” value (Pansy plants [1]; 30 mg ABA, no water, day 1 after treatment, Table 14)?
Answer: 7 % of control

Question: And the “Transpiration rate (% of control)” value (Pansy plants [1]; 30 mg ABA, no water, day 2 after treatment, Table 14)?
Answer: 8 % of control

Question: What about the “Transpiration rate (% of control)” value (Pansy plants [1]; 30 mg ABA, no water, day 3 after treatment, Table 14) of the same substance?
Answer: 8 % of control

Question: What about the “Transpiration rate (% of control)” value (Pansy plants [1]; 30 mg ABA, no water, day 4 after treatment, Table 14) of the same substance?
Answer: 15 % of control

Question: What about the “Transpiration rate (% of control)” value (Pansy plants [1]; 30 mg ABA, no water, day 5 after treatment, Table 14) of the same substance?
Answer: 21 % of control

Question: What about the “Transpiration rate (% of control)” value (Pansy plants [1]; 30 mg ABA, no water, day 7 after treatment, Table 14) of the same substance?
Answer: 27 % of control

Question: And the “Transpiration rate (% of control)” value (Pansy plants [1]; 30 mg ABA, watered, day 1 after treatment, Table 14)?
Answer: 7 % of control

Question: And the “Transpiration rate (% of control)” value (Pansy plants [1]; 30 mg ABA, watered, day 2 after treatment, Table 14)?
Answer: 7 % of control

Question: What about the “Transpiration rate (% of control)” value (Pansy plants [1]; 30 mg ABA, watered, day 3 after treatment, Table 14) of the same substance?
Answer: 9 % of control

Question: What about the “Transpiration rate (% of control)” value (Pansy plants [1]; 30 mg ABA, watered, day 4 after treatment, Table 14) of the same substance?
Answer: 15 % of control

Question: And the “Transpiration rate (% of control)” value (Pansy plants [1]; 30 mg ABA, watered, day 5 after treatment, Table 14)?
Answer: 21 % of control

Question: What about the “Transpiration rate (% of control)” value (Pansy plants [1]; 30 mg ABA, watered, day 7 after treatment, Table 14) of the same substance?
Answer: 28 % of control

Question: And the “Transpiration rate (% of control)” value (Pansy plants [1]; 30 mg ABA, watered, day 10 after treatment, Table 14)?
Answer: 56 % of control

Question: And the “Transpiration rate (% of control)” value (Pansy plants [1]; 30 mg ABA, watered, day 15 after treatment, Table 14)?
Answer: 99 % of control

Question: And the Transpiration inhibition (Pansy plants [1]; 30 mg ABA, watered, through 10 days after treatment)?
Answer: more than 50%

Question: And the Shelf life (Pansy plants [2]; 0.3 mg ABA, Matrix Yellow, Table 5)?
Answer: 4.8 days

Question: What about the Shelf life (Pansy plants [2]; 0.3 mg ABA, Matrix Yellow, Table 6) of the same substance?
Answer: 4.8 days

Question: And the Shelf life (Pansy plants [2]; 0.3 mg ABA, Matrix Yellow, Table 17)?
Answer: 3.2 days

Question: What about the Shelf life (Pansy plants [2]; 1 mg, Matrix Orange, drought, Table 1) of the same substance?
Answer: 5.0 days

Question: And the Shelf life (Pansy plants [2]; 3 mg ABA, Colossus Formula Mix, no water, Table 20)?
Answer: 5.2 days

Question: What about the Shelf life (Pansy plants [2]; 3 mg ABA, Delta Premium Pure White, Table 21) of the same substance?
Answer: 8.3 days

Question: What about the Shelf life (Pansy plants [2]; 3 mg ABA, Delta Premium Pure White, Table 22) of the same substance?
Answer: 5.7 days

Question: And the Shelf life (Pansy plants [2]; 3 mg ABA, Delta Premium Pure White, Table 24)?
Answer: 5.2 days

Question: And the Shelf life (Pansy plants [2]; 3 mg ABA, Matrix Yellow, Table 5)?
Answer: 5.7 days

Question: And the Shelf life (Pansy plants [2]; 3 mg ABA, Matrix Yellow, Table 6)?
Answer: 6.0 days

Question: And the Shelf life (Pansy plants [2]; 3 mg ABA, Matrix Yellow, Table 17)?
Answer: 4.3 days

Question: What about the Shelf life (Pansy plants [2]; 3 mg ABA, no water, Matrix Premium Rose, Table 13) of the same substance?
Answer: 4.8 days

Question: And the Shelf life (Pansy plants [2]; 3 mg, Clear Sky Yellow, drought, Table 8)?
Answer: 6.5 days

Question: And the Shelf life (Pansy plants [2]; 3 mg, Crown Azure Blue, drought, Table 9)?
Answer: 5.2 days

Question: What about the Shelf life (Pansy plants [2]; 3 mg, Delta Premium Pure Golden Yellow, advanced seedling stage (1 month old), drought, Table 4) of the same substance?
Answer: 4.2 days

Question: And the Shelf life (Pansy plants [2]; 3 mg, Delta Premium Pure Golden Yellow, drought, Table 3)?
Answer: 5.3 days

Question: And the Shelf life (Pansy plants [2]; 3 mg, Matrix Orange, drought, Table 1)?
Answer: 5.8 days

Question: And the Shelf life (Pansy plants [2]; 3 mg, Matrix Orange, drought, Table 2)?
Answer: 5.2 days

Question: And the Shelf life (Pansy plants [2]; 3 mg, Matrix Yellow, drought, Table 7)?
Answer: 7.7 days

Question: And the Shelf life (Pansy plants [2]; 3 mg, Matrix Yellow, drought, Table 10)?
Answer: 4.3 days

Question: What about the Shelf life (Pansy plants [2]; 10 mg, Delta Premium Pure Golden Yellow, advanced seedling stage (1 month old), drought, Table 4) of the same substance?
Answer: 5.7 days

Question: And the Shelf life (Pansy plants [2]; 10 mg, Delta Premium Pure Golden Yellow, drought, Table 3)?
Answer: 6.5 days

Question: What about the Shelf life (Pansy plants [2]; 10 mg, Matrix Orange, drought, Table 1) of the same substance?
Answer: 7.0 days

Question: What about the Shelf life (Pansy plants [2]; 10 mg, Matrix Orange, drought, Table 2) of the same substance?
Answer: 6.7 days

Question: What about the Shelf life (Pansy plants [2]; 30 mg ABA, Colossus Formula Mix, Table 18) of the same substance?
Answer: 6.2 days

Question: What about the Shelf life (Pansy plants [2]; 30 mg ABA, Colossus Formula Mix, no water, Table 20) of the same substance?
Answer: 6.5 days

Question: What about the Shelf life (Pansy plants [2]; 30 mg ABA, Delta Premium Pure White, Table 19) of the same substance?
Answer: 8.7 days

Question: What about the Shelf life (Pansy plants [2]; 30 mg ABA, Delta Premium Pure White, Table 21) of the same substance?
Answer: 10.2 days

Question: What about the Shelf life (Pansy plants [2]; 30 mg ABA, Delta Premium Pure White, Table 22) of the same substance?
Answer: 9.2 days

Question: What about the Shelf life (Pansy plants [2]; 30 mg ABA, Delta Premium Pure White, Table 23) of the same substance?
Answer: 8.2 days

Question: And the Shelf life (Pansy plants [2]; 30 mg ABA, Delta Premium Pure White, Table 24)?
Answer: 7.2 days

Question: What about the Shelf life (Pansy plants [2]; 30 mg ABA, Matrix Premium Rose, no water from 1 day after ABA, Table 11) of the same substance?
Answer: 7.2 days

Question: And the Shelf life (Pansy plants [2]; 30 mg ABA, Matrix Yellow, Table 5)?
Answer: 10.2 days

Question: What about the Shelf life (Pansy plants [2]; 30 mg ABA, Matrix Yellow, Table 6) of the same substance?
Answer: 10.8 days

Question: And the Shelf life (Pansy plants [2]; 30 mg ABA, Matrix Yellow, Table 17)?
Answer: 8.3 days

Question: And the Shelf life (Pansy plants [2]; 30 mg ABA, no water, Matrix Premium Rose, Table 13)?
Answer: 7.2 days

Question: And the Shelf life (Pansy plants [2]; 30 mg, Clear Sky Yellow, drought, Table 8)?
Answer: 7.8 days

Question: And the Shelf life (Pansy plants [2]; 30 mg, Crown Azure Blue, drought, Table 9)?
Answer: 6.7 days

Question: And the Shelf life (Pansy plants [2]; 30 mg, Delta Premium Pure Golden Yellow, advanced seedling stage (1 month old), drought, Table 4)?
Answer: 7.7 days

Question: What about the Shelf life (Pansy plants [2]; 30 mg, Delta Premium Pure Golden Yellow, drought, Table 3) of the same substance?
Answer: 8.0 days

Question: And the Shelf life (Pansy plants [2]; 30 mg, Matrix Orange, drought, Table 1)?
Answer: 8.0 days

Question: And the Shelf life (Pansy plants [2]; 30 mg, Matrix Orange, drought, Table 2)?
Answer: 9.2 days

Question: What about the Shelf life (Pansy plants [2]; 30 mg, Matrix Yellow, drought, Table 7) of the same substance?
Answer: 9.3 days

Question: What about the Shelf life (Pansy plants [2]; 30 mg, Matrix Yellow, drought, Table 10) of the same substance?
Answer: 8.0 days
